pEC50: −log10 of the molar value.
Molecular target: PI3Kα (Homo sapiens, UniProt P42336)
Test: pAKT S473 ELISA in A549 cells (PI3Kα activation)
Format: cell-based
Design: endogenous in cells; host or cells: A549
Details: for pEC50: A549 cells, 15 min treatment, pAKT S473 ELISA, normalised to Emax of 1 μM insulin, read-out: Av EC50; for Emax at 10 µM: A549, 0.25 h, read-out: <50% response at 10 μM
Procedure: EC50 values were determined by quantifying phosphorylation on S473 residues of Akt in A549 human adenocarcinoma cells by ELISA (enzyme linked immunoadsorbent assay, R&D Systems, DYC887BE). A549 cells were seeded into 96-well plates (50,000 cells/well) in DMEM supplemented with 10% foetal bovine serum and 1% penicillin-streptomyocin. Following 24 h in culture cells were starved for 24 h in serum-free DMEM before 15 minute treatment with a concentration response curve of compounds. Experimental compounds were diluted in DMSO into […] 1:3 concentration response curves in polypropylene V-bottom plates (SLS MIC9050). Concentration response curves were diluted to a 3× stock in serum-free DMEM. Standard 8-point concentration response curves were performed at 50, 16.7, 5.6, 1.9, 0.6, 0.2, 0.07, 0.02 μM and serum-free DMEM containing 0.5% DMSO was used as a negative control. […] A549 cells were seeded at 50,000 cells per well in 96-well plates in DMEM (10% FBS+1% P/S). The next day cells were washed once with PBS before addition of serum-free DMEM for 24 h. On the day of treatment cells, were incubated in fresh serum-free DMEM prior to treatment. Compounds solubilised to 10 mM in DMSO were diluted 1:3 in an 8-point concentration response curve in DMSO. Concentration response curves were diluted in serum-free DMEM by transfer into intermediate plates using a BRAVO liquid handler (Agilent). Intermediate plates were then used to treat cell plates using the BRAVO liquid handler. Compound concentration response curves had atop concentration of 50 μM and a final well concentration of 0.5% DMSO. Cell plates were treated for 15 min at 37° C., 5% CO2 before being washed with ice-cold PBS and lysed in lysis buffer 6 (R&D Systems #895561) and freezing at −80° C. Levels of pAKT-S473 were determined using the phospho-AKT (S473) pan-specific Duoset IC ELISA (R&D Systems #DYC887BE) in 96-well white high-binding plates (Corning #3922) according to manufacturer's instructions. Endpoint luminescence was measured using a Sense (Hidex) platereader. […] Data were transformed and EC50 data were determined by variable slope (4 parameters) non-linear regression using Prism 7 (Graphpad).

Sequence of PI3Kα (P42336 whole entry): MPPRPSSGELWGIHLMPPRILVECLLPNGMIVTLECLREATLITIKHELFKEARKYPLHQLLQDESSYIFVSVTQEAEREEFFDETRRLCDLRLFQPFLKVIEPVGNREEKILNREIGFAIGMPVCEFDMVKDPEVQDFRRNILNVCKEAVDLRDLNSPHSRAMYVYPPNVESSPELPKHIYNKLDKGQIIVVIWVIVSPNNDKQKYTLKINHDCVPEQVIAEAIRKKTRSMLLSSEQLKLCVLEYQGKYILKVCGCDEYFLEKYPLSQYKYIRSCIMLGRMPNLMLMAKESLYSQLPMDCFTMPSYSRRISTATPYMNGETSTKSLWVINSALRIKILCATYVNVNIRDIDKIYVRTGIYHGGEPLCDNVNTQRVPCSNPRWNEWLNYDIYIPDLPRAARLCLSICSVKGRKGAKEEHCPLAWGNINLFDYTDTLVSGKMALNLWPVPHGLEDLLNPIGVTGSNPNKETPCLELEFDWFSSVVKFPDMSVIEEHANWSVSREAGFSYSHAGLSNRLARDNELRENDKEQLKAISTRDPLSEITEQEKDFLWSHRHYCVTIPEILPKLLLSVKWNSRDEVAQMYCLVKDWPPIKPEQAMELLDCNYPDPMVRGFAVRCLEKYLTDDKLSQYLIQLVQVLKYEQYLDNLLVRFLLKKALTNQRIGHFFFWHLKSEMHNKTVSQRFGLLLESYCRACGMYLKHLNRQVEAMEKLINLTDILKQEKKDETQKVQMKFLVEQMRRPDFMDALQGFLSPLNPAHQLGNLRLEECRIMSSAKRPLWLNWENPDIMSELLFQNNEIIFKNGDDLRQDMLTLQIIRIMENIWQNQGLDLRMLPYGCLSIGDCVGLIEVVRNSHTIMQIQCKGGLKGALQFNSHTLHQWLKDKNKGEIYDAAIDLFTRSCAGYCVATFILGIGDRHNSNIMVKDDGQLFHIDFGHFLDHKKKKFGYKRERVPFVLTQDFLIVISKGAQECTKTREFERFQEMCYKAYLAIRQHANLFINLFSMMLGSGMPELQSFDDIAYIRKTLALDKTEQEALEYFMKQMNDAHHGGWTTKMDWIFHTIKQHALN
Sequence of PI3Kα (P27986 whole entry partner): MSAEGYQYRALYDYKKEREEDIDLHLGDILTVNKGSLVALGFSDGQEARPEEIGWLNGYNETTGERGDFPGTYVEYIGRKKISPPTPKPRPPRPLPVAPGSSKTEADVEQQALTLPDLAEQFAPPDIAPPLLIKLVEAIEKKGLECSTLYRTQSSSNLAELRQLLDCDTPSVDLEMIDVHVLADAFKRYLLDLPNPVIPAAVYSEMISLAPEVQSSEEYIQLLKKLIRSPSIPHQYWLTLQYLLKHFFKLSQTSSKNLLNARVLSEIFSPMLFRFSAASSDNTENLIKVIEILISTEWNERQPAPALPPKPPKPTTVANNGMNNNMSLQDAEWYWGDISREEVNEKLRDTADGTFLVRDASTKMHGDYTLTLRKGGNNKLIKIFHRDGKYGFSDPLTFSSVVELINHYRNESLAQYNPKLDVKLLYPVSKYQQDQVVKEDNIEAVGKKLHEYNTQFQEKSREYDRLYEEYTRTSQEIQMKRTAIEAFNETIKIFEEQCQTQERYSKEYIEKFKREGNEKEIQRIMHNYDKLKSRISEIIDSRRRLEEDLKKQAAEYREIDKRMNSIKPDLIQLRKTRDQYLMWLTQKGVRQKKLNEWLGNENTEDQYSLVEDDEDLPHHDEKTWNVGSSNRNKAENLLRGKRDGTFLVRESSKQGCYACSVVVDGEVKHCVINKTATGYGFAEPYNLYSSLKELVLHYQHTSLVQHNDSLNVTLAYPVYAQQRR

pEC50 | Emax at 10 µM | SMILES
5.60 | – | COc1cc(N2CCN(C)CC2)ccc1Nc1cc(Nc2cccc(NS(C)(=O)=O)c2)ccn1 [60 (2054)]
5.58 | – | CNC(=O)c1ccc(Nc2ccnc(Nc3ccc(N4CCN(C)CC4)cc3OC)c2)cc1 [61 (2055)]
5.89 | < 50% | COc1cc(N2CCN(C)CC2)ccc1Nc1cc(Nc2cccc3nccnc23)ccn1 [62 (2056)]
< 4.30 | < 50% | COc1cc(N2CCN(C)CC2)ccc1Nc1cc(Nc2cccc3[nH]ccc23)ccn1 [63 (2057)]
5.80 | – | COc1cc(N2CCN(C)CC2)ccc1Nc1cc(Nc2cccnc2)ccn1 [64 (2061)]
5.82 | – | COc1cc(N2CCN(C)CC2)ccc1Nc1cc(Nc2cccc(-n3ccnc3)c2)ccn1 [65 (2063)]
4.76 | – | COc1cc(N2CCN(C)CC2)ccc1Nc1cc(Nc2cccc(-n3cnnc3)c2)ccn1 [66 (2064)]
< 4.30 | < 50% | COc1cc(N2CCN(C)CC2)ccc1Nc1cc(Nc2ncccc2C#N)ccn1 [67 (2066)]
5.40 | – | CC(=O)N1CCc2cccc(Nc3ccnc(Nc4cccc5ncccc45)c3)c21 [68 (2067)]
< 4.30 | – | C#Cc1cccc(Nc2cc(Nc3cccc4c3N(C(C)=O)CC4)ccn2)c1 [69 (2069)]
6.41 | < 50% | CC(=O)N1CCc2cccc(Nc3ccnc(Nc4cc(C(C)C)nn4C)c3)c21 [70 (2070)]
5.18 | < 50% | CC(=O)N1CCc2cccc(Nc3ccnc(Nc4cccc5ccncc45)c3)c21 [71 (2071)]
5.97 | – | CC(=O)N1CCc2cc(Nc3cc(Nc4cccc5c4N(C(C)=O)CC5)ccn3)ccc21 [72 (2072)]
6.30 | < 50% | CC(=O)N1CCc2ccc(Nc3cc(Nc4cccc5c4N(C(C)=O)CC5)ccn3)cc21 [73 (2073)]
< 4.30 | – | CC(=O)N1CCc2cccc(Nc3ccnc(Nc4ccc(-c5ccccc5)cn4)c3)c21 [74 (2079)]
< 4.72 | < 50% | CC(=O)N1CCc2cccc(Nc3ccnc(Nc4ccc(C(=O)N(C)C)cc4)c3)c21 [75 (2101)]
5.66 | – | CCN1CCN(c2ccc(Nc3cc(Nc4cc(C(C)(C)C)nn4C)ccn3)cc2)CC1 [76 (2102)]
5.68 | – | CCN1CCN(c2ccc(Nc3cc(Nc4cc(C(C)C)nn4C)ccn3)cc2)CC1 [77 (2103)]
5.70 | – | CCN1CCN(c2ccc(Nc3cc(Nc4cccc(C(=O)NC)c4)ccn3)cc2)CC1 [78 (2104)]
5.08 | – | CCN1CCN(c2ccc(Nc3cc(Nc4ccc(C(=O)NC)cc4)ccn3)cc2)CC1 [79 (2105)]
≤ 4.30 | – | CCN1CCN(c2ccc(Nc3cc(Nc4ccncn4)ccn3)cc2)CC1 [80 (2106)]
5.27 | – | CCN1CCN(c2ccc(Nc3cc(Nc4cccc(-n5ccnc5)c4)ccn3)cc2)CC1 [81 (2107)]
5.82 | – | CCN1CCN(c2ccc(Nc3cc(Nc4cccc(S(C)(=O)=O)c4)ccn3)cc2)CC1 [82 (2108)]
5.56 | < 50% | CC(=O)N1CCc2cc(Nc3cc(Nc4cc(C(C)(C)C)nn4C)ccn3)ccc21 [83 (2109)]
< 4.57 | < 50% | CC(=O)N1CCc2cc(Nc3cc(Nc4cc(C(C)C)nn4C)ccn3)ccc21 [85 (2110)]

pEC50 | Emax at 10 µM | SMILES
< 4.54 | < 50% | CNC(=O)c1cccc(Nc2ccnc(Nc3ccc4c(c3)CCN4C(C)=O)c2)c1 [86 (2111)]
< 4.57 | < 50% | CNC(=O)c1ccc(Nc2ccnc(Nc3ccc4c(c3)CCN4C(C)=O)c2)cc1 [87 (2112)]
< 4.30 | < 50% | CC(=O)N1CCc2cc(Nc3cc(Nc4cccc(S(C)(=O)=O)c4)ccn3)ccc21 [88 (2115)]
< 4.30 | < 50% | CNC(=O)c1ccc(Nc2cc(Nc3cc(C(C)(C)C)nn3C)ccn2)cc1 [89 (2116)]
< 4.30 | < 50% | CNC(=O)c1ccc(Nc2cc(Nc3cc(C(C)C)nn3C)ccn2)cc1 [90 (2117)]
5.64 | – | COc1cc(C(=O)N2CCOCC2)ccc1Nc1cc(Nc2cccc3c2N(C(C)=O)CC3)ccn1 [91 (2347)]
< 4.98 | – | CC(=O)N1CCc2cccc(Nc3ccnc(Nc4ccc(C(=O)N5CCOCC5)cc4)c3)c21 [92 (2348)]
5.29 | – | CNC(=O)c1ccc(Nc2cc(Nc3cccc4c3N(C(C)=O)CC4)ccn2)c(OC)c1 [93 (2349)]
5.34 | – | CC(=O)N1CCc2cccc(Nc3ccnc(Nc4ccc(N5CCOCC5)cc4C)c3)c21 [94 (2350)]
4.83 | – | CC(=O)N1CCc2cccc(Nc3ccnc(Nc4ccc(N5CCN(C)CC5)cc4C)c3)c21 [95 (2351)]
< 6.30 | < 50% | COc1cc(N2CC3(COC3)C2)ccc1Nc1cc(Nc2cccc3c2N(C(C)=O)CC3)ccn1 [96 (2353)]
6.01 | – | COc1cc(N2CCN(C3CC3)CC2)ccc1Nc1cc(Nc2cccc3c2N(C(C)=O)CC3)ccn1 [97 (2354)]
< 4.30 | – | CC(=O)N1CCc2cccc(Nc3ccnc(Nc4ccnc5ccccc45)c3)c21 [98 (2355)]
< 4.30 | < 50% | CCN1CCN(c2ccc(Nc3cccc(Nc4cccc5c4N(C(C)=O)CC5)c3)cc2)CC1 [99 (2346)]
5.32 | < 50% | COc1ccccc1Nc1cc(Nc2cccc3c2N(C(C)=O)CC3)ccn1 [99 (2356)]
< 4.30 | – | COc1cc(C#N)ccc1Nc1cc(Nc2cccc3c2N(C(C)=O)CC3)ccn1 [100 (2357)]
< 4.30 | – | CC(=O)N1CCc2cccc(Nc3ccnc(Nc4cccc(NS(C)(=O)=O)c4)c3)c21 [101 (2358)]
< 4.30 | – | CC(=O)N1CCc2cccc(Nc3ccnc(Nc4cccc(S(C)(=O)=O)c4)c3)c21 [102 (2359)]
< 4.30 | < 50% | COc1cc(N2CCN(C)CC2)ccc1Nc1cc(-c2cccc(C(=O)N(C)C)c2)ccn1 [103 (1940)]
5.81 | – | COc1ccc(S(C)(=O)=O)cc1Nc1cc(Nc2cccc3c2N(C(C)=O)CC3)ccn1 [R1 (1888)]
5.79 | – | COc1cc(N2CCN(C)CC2)ccc1Nc1cc(Nc2cccc3c2N(C(C)=O)CC3)c(F)cn1 [R2 (1890)]
5.71 | – | COc1cc(Nc2cc(Nc3cccc4c3N(C(C)=O)CC4)ccn2)cc(OC)c1OC [R3 (1887)]
5.59 | – | COc1cc(N2CCN(C)CC2)ccc1Nc1cc(Nc2cccc3c2N(C(C)=O)CC3)ccn1 [R4 (1889)]
6.23 | < 50% | CC(=O)N1CCc2cccc(Nc3ccnc(-c4cnn(C5CCNCC5)c4)c3)c21 [R5 (1962)]

From patent publication US20250263404A1, “AMINOPYRIDINES AS ACTIVATORS OF PI3 KINASE” (UCL Business Ltd, priority 2021, published 2025)
